How the values were obtained:
A549 = assay: Antiproliferative activity against human A549 cells assessed as inhibition of cell growth after 72 hrs by MTT-based assay; format: functional; settings: A549, 72 h
Histone deacetylase 2 = Histone deacetylase 2 (Homo sapiens, UniProt Q92769); assay: Inhibition of recombinant HDAC2 (unknown origin) using fluorogenic substrate Boc-Lys (acetyl)-AMC after 20 mins by homogeneous fluorescence release assay
cells [1] = format: functional, cell-based; settings: Homo sapiens, U-937, 72 h
Description: Antiproliferative activity against human U937 cells assessed as inhibition of cell growth after 72 hrs by MTT-based assay

Histone deacetylase 8 = biological target: T1, Histone deacetylase 8 (Homo sapiens, UniProt Q9BY41); assay: Inhibition of recombinant HDAC8 (unknown origin) using fluorogenic substrate Boc-Lys (acetyl)-AMC after 20 mins by homogeneous fluorescence release assay
T1 sequence (Q9BY41 whole entry): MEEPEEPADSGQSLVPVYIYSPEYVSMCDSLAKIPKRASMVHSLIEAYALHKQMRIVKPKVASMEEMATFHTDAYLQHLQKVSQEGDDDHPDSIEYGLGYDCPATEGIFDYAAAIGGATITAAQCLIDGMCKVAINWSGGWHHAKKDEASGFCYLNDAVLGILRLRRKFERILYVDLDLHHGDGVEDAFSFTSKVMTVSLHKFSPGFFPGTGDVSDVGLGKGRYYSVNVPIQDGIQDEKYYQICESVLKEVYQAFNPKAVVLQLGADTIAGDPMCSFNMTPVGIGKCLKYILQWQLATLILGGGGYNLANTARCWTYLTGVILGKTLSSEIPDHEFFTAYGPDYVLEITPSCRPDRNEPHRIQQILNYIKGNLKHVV

Histone deacetylase 1 = Histone deacetylase 1 (Homo sapiens, UniProt Q13547); assay: Inhibition of recombinant HDAC1 (unknown origin) using fluorogenic substrate Boc-Lys (acetyl)-AMC after 20 mins by homogeneous fluorescence release assay
MDA-MB-231 = assay: cells; format: functional, cell-based; settings: Homo sapiens, MDA-MB-231, 72 h
Description: Antiproliferative activity against human MDA-MB-231 cells assessed as inhibition of cell growth after 72 hrs by MTT-based assay

NCI-H661 = assay: Antiproliferative activity against human NCI-H661 cells assessed as inhibition of cell growth after 72 hrs by MTT-based assay; format: functional; settings: NCI-H661, 72 h
cells [2] = format: functional, cell-based; settings: Homo sapiens, HCT-116, 72 h
Description: Antiproliferative activity against human HCT116 cells assessed as inhibition of cell growth after 72 hrs by MTT-based assay

Sequence of Histone deacetylase 1 (Q13547 whole entry): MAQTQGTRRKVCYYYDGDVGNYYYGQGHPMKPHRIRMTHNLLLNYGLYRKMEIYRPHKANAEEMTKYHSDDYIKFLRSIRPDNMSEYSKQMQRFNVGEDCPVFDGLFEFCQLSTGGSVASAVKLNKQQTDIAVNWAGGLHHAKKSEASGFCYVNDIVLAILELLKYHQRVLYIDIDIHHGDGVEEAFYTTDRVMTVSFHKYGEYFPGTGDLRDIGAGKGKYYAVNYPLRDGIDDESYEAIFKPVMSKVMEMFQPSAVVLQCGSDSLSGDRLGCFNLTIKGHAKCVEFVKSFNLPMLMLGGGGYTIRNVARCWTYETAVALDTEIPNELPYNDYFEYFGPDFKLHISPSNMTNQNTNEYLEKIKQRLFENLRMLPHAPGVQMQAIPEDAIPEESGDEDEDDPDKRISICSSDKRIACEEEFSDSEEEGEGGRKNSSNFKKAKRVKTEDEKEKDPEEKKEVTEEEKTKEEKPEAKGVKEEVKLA
Sequence of Histone deacetylase 2 (Q92769 whole entry): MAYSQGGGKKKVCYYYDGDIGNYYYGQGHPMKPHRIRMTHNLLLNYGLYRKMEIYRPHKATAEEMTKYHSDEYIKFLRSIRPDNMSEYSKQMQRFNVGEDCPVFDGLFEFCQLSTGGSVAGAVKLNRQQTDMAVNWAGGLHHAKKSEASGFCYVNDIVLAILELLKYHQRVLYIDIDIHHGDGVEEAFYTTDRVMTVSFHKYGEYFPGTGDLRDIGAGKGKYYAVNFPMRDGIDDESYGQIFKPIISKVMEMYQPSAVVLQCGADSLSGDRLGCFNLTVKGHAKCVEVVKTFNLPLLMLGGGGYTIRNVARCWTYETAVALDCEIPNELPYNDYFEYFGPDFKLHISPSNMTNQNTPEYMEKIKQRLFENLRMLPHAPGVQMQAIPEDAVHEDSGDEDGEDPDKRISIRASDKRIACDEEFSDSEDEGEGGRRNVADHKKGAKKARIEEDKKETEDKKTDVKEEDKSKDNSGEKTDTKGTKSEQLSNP

Structure (SMILES) | IC50 (A549) [µM] | IC50 (Histone deacetylase 2) [µM] | IC50 (cells [1]) [µM] | IC50 (Histone deacetylase 8) [µM] | IC50 (Histone deacetylase 1) [µM] | IC50 (MDA-MB-231) [µM] | IC50 (NCI-H661) [µM] | IC50 (cells [2]) [µM]
O=C(NO)c1ccc(CNCc2nc(-c3ccccc3)no2)cc1 | > 100 | > 10 | 7.21 | 0.2 | 5.73 | 14.7 | > 100 | 29.3
Cc1ccc(-c2noc(CNCc3ccc(C(=O)NO)cc3)n2)cc1 | > 100 | > 10 | 7.83 | 1.25 | 6.86 | 15.4 | > 100 | 27.8
COc1ccc(-c2noc(CNCc3ccc(C(=O)NO)cc3)n2)cc1 | > 100 | > 10 | 3.45 | 0.86 | 8.32 | 8.93 | > 100 | 18.6
O=C(NO)c1ccc(CNCc2nc(-c3ccc(C(F)(F)F)cc3)no2)cc1 | > 100 | > 10 | 8.05 | 1.36 | 9.63 | 12.3 | > 100 | 43.1
O=C(NO)c1ccc(CNCc2nc(-c3ccc(Cl)cc3)no2)cc1 | > 100 | 8.52 | 5.29 | 0.35 | 3.85 | 10.9 | > 100 | 30.2
O=C(NO)c1ccc(CNCc2nc(-c3ccc([N+](=O)[O-])cc3)no2)cc1 | > 100 | 9.23 | 6.52 | 0.38 | 2.67 | 9.56 | > 100 | 21.9
O=C(NO)c1ccc(CNCc2nc(-c3ccc(F)cc3)no2)cc1 | > 100 | 7.69 | 2.95 | 0.23 | 3.53 | 9.12 | > 100 | 17.8
Nc1ccccc1NC(=O)c1ccc(CNC(=O)OCc2cccnc2)cc1 [ENTINOSTAT] | 5.41 | – | 0.55 | – | – | 4.63 | 2.19 | 0.78
O=C(CCCCCCC(=O)Nc1ccccc1)NO [VORINOSTAT] | – | – | – | – | – | – | 0.13 | –

Results, then the molecule that gave them:

IC50 (A549) [µM] | IC50 (Histone deacetylase 2) [µM] | IC50 (cells [1]) [µM] | IC50 (Histone deacetylase 8) [µM] | IC50 (Histone deacetylase 1) [µM] | IC50 (MDA-MB-231) [µM] | IC50 (NCI-H661) [µM] | IC50 (cells [2]) [µM] | Structure (SMILES)
10.8 | 0.53 | 1.63 | > 10 | 0.28 | 7.69 | 11.8 | 8.63 | Nc1ccccc1NC(=O)c1ccc(CNCc2nc(-c3ccccc3)no2)cc1
9.81 | 0.56 | 0.97 | > 10 | 0.21 | 5.81 | 7.39 | 6.55 | Cc1ccc(-c2noc(CNCc3ccc(C(=O)Nc4ccccc4N)cc3)n2)cc1
7.95 | 0.29 | 1.09 | > 10 | 0.18 | 5.53 | 5.77 | 4.37 | COc1ccc(-c2noc(CNCc3ccc(C(=O)Nc4ccccc4N)cc3)n2)cc1
100 | 5.93 | 2.58 | > 10 | 2.75 | 6.87 | 23.5 | 19.7 | Nc1ccccc1NC(=O)c1ccc(CNCc2nc(-c3ccc(C(F)(F)F)cc3)no2)cc1
13.5 | 0.43 | 0.43 | > 10 | 0.09 | 5.12 | 8 | 6.81 | Nc1ccccc1NC(=O)c1ccc(CNCc2nc(-c3ccc(Cl)cc3)no2)cc1
6.39 | 0.15 | 0.52 | > 10 | 0.06 | 3.18 | 4.73 | 2.33 | Nc1ccccc1NC(=O)c1ccc(CNCc2nc(-c3ccc([N+](=O)[O-])cc3)no2)cc1
10.7 | 0.28 | 1.25 | > 10 | 0.11 | 2.95 | 4.36 | 3.51 | Nc1ccccc1NC(=O)c1ccc(CNCc2nc(-c3ccc(F)cc3)no2)cc1
> 100 | 4.39 | 5.96 | > 10 | 3.85 | 10.3 | 35.8 | 27.2 | Nc1ccccc1NC(=O)c1ccc(CNCc2nc(-c3cccs3)no2)cc1
> 100 | 8.37 | 11 | > 10 | 5.26 | 21.2 | 100 | 43.6 | Nc1ccccc1NC(=O)c1ccc(CNCc2nc(-c3cccnc3)no2)cc1
7.92 | 0.32 | 0.38 | > 10 | 0.07 | 3.57 | 3.33 | 1.23 | Nc1ccccc1NC(=O)c1ccc(CNCc2nc(-c3ccccc3Cl)no2)cc1
> 100 | > 10 | 10.7 | 8.26 | > 10 | 23.9 | > 100 | > 100 | O=C(NO)c1ccc(CNCc2nc(-c3cccs3)no2)cc1

— ChEMBL document CHEMBL3421568, “Discovery and preliminary evaluation of 2-aminobenzamide and hydroxamate derivatives containing 1,2,4-oxadiazole moiety as potent histone deacetylase inhibitors” (Eur J Med Chem, 2015)
